Assay results from patent US20040121947A1, “Compounds which inhibit beta-secretase activity and methods of use thereof” (Oklahoma Medical Research Foundation, priority 2000, published 2004).
Like-named read-outs stand apart in the source and are kept apart here.

Biological target: T1, memapsin 2 (Homo sapiens, UniProt P56817)
T1 construct: pET-11 vector-derived residues 1-15 of promemapsin 2-T1 (N, cleaved yes); made in house; host or cells: E. coli
Assay: Inhibition of memapsin 2 proteolytic activity, fluorogenic substrate FS-2
Format: biochemical
Settings: for Vi/Vo: ratio of initial cleavage velocities of FS-2 with/without compound, enzyme and inhibitor concentrations equal (e.g., about 80 nM, 100 nM)
In short: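 Inhibitors tested at about 10 nM to 10 μM in pH 4.0 0.1 M sodium acetate containing 10% (v/v) DMSO, after 20 min preincubation at 37 °C with 80 nM self-activated memapsin 2. Substrate-independent Ki derived from apparent Ki via Km and substrate level.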

[1] = memapsin 2, apparent Ki in presence of substrate FS-2, read-out: Ki app
[2] = memapsin 2, independent of substrate, converted from Ki apparent, read-out: Ki
[3] = Ki, [I] < 100, memapsin 2, [I] < 100 (nM)
[4] = memapsin 2, apparent Ki in presence of substrate FS-2
[5] = memapsin 2, independent of substrate, converted from Ki apparent

T1 sequence (P56817 41-454 limits assumed): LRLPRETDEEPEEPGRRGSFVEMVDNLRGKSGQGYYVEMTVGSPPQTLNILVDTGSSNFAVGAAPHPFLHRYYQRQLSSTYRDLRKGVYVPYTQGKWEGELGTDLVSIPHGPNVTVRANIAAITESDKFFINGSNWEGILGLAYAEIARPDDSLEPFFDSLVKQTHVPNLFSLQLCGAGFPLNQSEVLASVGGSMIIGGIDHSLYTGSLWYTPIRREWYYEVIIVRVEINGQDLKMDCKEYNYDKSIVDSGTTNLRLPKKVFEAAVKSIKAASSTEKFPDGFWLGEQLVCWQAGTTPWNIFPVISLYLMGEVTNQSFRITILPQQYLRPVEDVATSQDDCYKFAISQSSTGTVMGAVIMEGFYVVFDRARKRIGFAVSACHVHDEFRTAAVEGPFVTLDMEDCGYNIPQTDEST

Row | Compound | Ki [1] [nM] | Ki [2] [nM] | Vi/Vo | also measured
1 | CCCCNC(=O)[C@@H](NC(=O)[C@H](C)C[C@H](O)[C@H](CC1CCCC1)NC(=O)[C@H](CCSC)NC(=O)OCn1nc(C)cc1C)C(C)C [MMI-172] | 447 | 279 | 1.05 | 
2 | CSCC[C@H](NC(=O)[C@@H](NC(=O)OC(C)(C)C)C(C)C)C(=O)N[C@@H](CC(C)C)[C@@H](O)C[C@H](C(=O)N[C@H](C(=O)NCc1ccccc1)C(C)C)C(C)C [MMI-202] | 688 | 430 |  | 
3 | CSC[C@H](NC(=O)OC(C)(C)C)C(=O)N[C@@H](CC(C)C)[C@@H](O)C[C@@H](C)C(=O)N[C@H](C(=O)NCc1ccccc1)C(C)C [MMI-023] | 15300 | 9550 |  | 
4 | CSCC[C@H](NC(=O)OC(C)(C)C)C(=O)N[C@@H](CC(C)C)[C@@H](O)C[C@@H](C)C(=O)N[C@@H](C)C(=O)NCc1ccccc1 [MMI-006] | 63300 | 40200 |  | 
5 | COc1ccccc1C(=O)N[C@@H](CCSC)C(=O)N[C@@H](CC(C)C)[C@@H](O)C[C@@H](C)C(=O)N[C@@H](CC(C)C)C(=O)NC(C)C [MMI-207] | 1580 | 988 |  | Ki [3]: 1830 nM
6 | CSCC[C@H](NC(=O)[C@@H](NC(=O)c1cccc(O)c1C)C(C)C)C(=O)N[C@@H](CC(C)C)[C@@H](O)C[C@@H](C)C(=O)N[C@@H](CC(C)C)C(=O)NCc1ccccc1 [MMI-121] | 9550 | 5970 |  | 
7 | CSCC[C@H](NC(=O)OCc1cc(C)nn1C)C(=O)N[C@@H](CC(C)C)[C@@H](O)C[C@@H](C)C(=O)N[C@H](C(=O)NCC(C)C)C(C)C [MMI-193] | 288 | 180 |  | 
8 | CC(C)C[C@H](NC(=O)[C@H](CC(N)=O)NC(=O)OC(C)(C)C)[C@@H](O)C[C@@H](C)C(=O)N[C@H](C(=O)NCc1ccccc1)C(C)C [MMI-011] | 4880 | 3100 |  | 
9 | CC(C)C[C@H](NC(=O)[C@H](CCS(C)(=O)=O)NC(=O)[C@@H](NC(=O)OC(C)(C)C)C(C)C)[C@@H](O)C[C@@H](C)C(=O)N[C@@H]1c2ccccc2C[C@@H]1O [MMI-054] |  | 293000 |  | 
10 | CC(C)C[C@H](NC(=O)[C@H](CC(N)=O)NC(=O)[C@@H](NC(=O)OC(C)(C)C)C(C)C)[C@@H](O)C[C@@H](C)C(=O)N[C@@H](C)C(=O)NCc1ccccc1 [MMI-005] | 126 | 78.9 |  | 
11 | CC(C)C[C@H](NC(=O)[C@H](CS(C)(=O)=O)NC(=O)OCc1ccncc1)[C@@H](O)C[C@@H](C)C(=O)N[C@H](C(=O)NCc1ccccc1)C(C)C [MMI-144] |  |  | 1.03 | 
12 | CSCC[C@H](NC(=O)[C@@H](NC(=O)OC(C)(C)C)C(C)C)C(=O)N[C@@H](CC(C)C)[C@@H](O)C[C@]1(C)CCN([C@H](C(=O)NCC(C)C)C(C)C)C1=O [MMI-187] |  |  |  | Ki app [4]: N.I.; Ki [5]: N.I.
13 | CC(C)C[C@H](NC(=O)[C@H](C)C[C@H](O)[C@H](CC(C)C)NC(=O)[C@H](CS(C)(=O)=O)NC(=O)OCc1ccccn1)C(=O)NCc1ccccc1 [MMI-126] |  |  | 0.72 | 
14 | COc1cccc(C(=O)N[C@@H](CSC)C(=O)N[C@@H](CC(C)C)[C@@H](O)C[C@@H](C)C(=O)N[C@@H](CC(C)C)C(=O)NC(C)C)c1OC [MMI-199] | 963 | 602 |  | Ki [3]: 190 nM
15 | CSCC[C@H](C[C@H](O)[C@H](CC(C)C)NC(=O)[C@H](CCSC)NC(=O)[C@H](CC(C)C)NC(=O)OC(C)(C)C)C(=O)N[C@H](C(=O)NCc1ccccc1)C(C)C [MMI-164] | 12.8 | 7.98 | 0.29 | 
16 | CC(C)C[C@H](NC(=O)OC(C)(C)C)C(=O)N[C@@H](CC1CCCO1)C(=O)N[C@@H](CC(C)C)[C@@H](O)C[C@@H](C)C(=O)N[C@@H](CC(C)C)C(=O)NC(C)C (some centres unmarked) [MMI-215] | 30.9 | 19.3 |  | 
17 | CSCC[C@H](NC(=O)[C@@H](NC(=O)OC(C)(C)C)C(C)C)C(=O)N[C@@H](CC(C)C)[C@@H](O)C[C@@H](CC(F)(F)F)C(=O)N[C@H](C(=O)NCc1ccccc1)C(C)C [MMI-030] | 8520 | 5320 |  | 
18 | CC(C)C[C@H](NC(=O)[C@@H]1CC(=O)NCCCCCOC(=O)N[C@@H](C(C)C)C(=O)N1)[C@@H](O)C[C@@H](C)C(=O)N[C@H](C(=O)NCc1ccccc1)C(C)C [MMI-153] |  |  | 0.68 | 
19 | CC(C)C[C@H](NC(=O)[C@H](CCS(C)(=O)=O)NC(=O)OC(C)(C)C)[C@@H](O)C[C@@H](C)C(=O)N[C@H](C(=O)NCc1ccccc1)C(C)C [MMI-016] | 5640 | 3530 |  | 
20 | CC(C)C[C@H](NC(=O)[C@@H](NC(=O)OC(C)(C)C)C(C)C)[C@@H](O)CN(C)C(=O)[C@H](NC(=O)OCc1ccccc1)C(C)C [MMI-062] |  |  |  | Ki app [4]: N.I.; Ki [5]: N.I.
21 | CSCC[C@H](NC(=O)C(C)Cn1nc(C)cc1C)C(=O)N[C@@H](CC(C)C)[C@@H](O)C[C@@H](C)C(=O)N[C@H](C(=O)NCC(C)C)C(C)C (some centres unmarked) [MMI-195] | 451 | 282 |  | 

Row | Compound | Ki [1] [nM] | Ki [2] [nM] | Vi/Vo | also measured
22 | CSCC[C@H](NC(=O)[C@@H](NC(=O)OC(C)(C)C)C(C)C)C(=O)N[C@@H](CC(C)C)[C@@H](O)C[C@@H](C)C(=O)N[C@@H](C(C)C)C1CC(Cc2ccccc2)CCO1 (some centres unmarked) [MMI-146-S] |  |  | 1.04 | 
23 | CC(C)C[C@H](NC(=O)C(CCS(C)(=O)=O)NC(=O)[C@@H](NC(=O)OC(C)(C)C)C(C)C)[C@@H](O)C[C@@H](C)C(=O)N[C@H](C(=O)NCc1ccccc1)[C@H](C)O (some centres unmarked) [MMI-082] |  |  | 0.72 | 
24 | CSCC[C@H](NC(=O)OCn1nc(C)cc1C)C(=O)N[C@@H](CC(C)C)[C@@H](O)C[C@@H](C)C(=O)N[C@@H](CC(C)C)C(=O)NCC(C)C [MMI-166] | 108 | 67.4 | 0.76 | 
25 | CSCC[C@H](NC(=O)OCc1ccnn1C)C(=O)N[C@@H](CC(C)C)[C@@H](O)C[C@@H](C)C(=O)N[C@H](C(=O)NCC(C)C)C(C)C [MMI-186] | 217 | 136 |  | 
26 | CC(C)C[C@H](NC(=O)OC(C)(C)C)[C@@H](O)C[C@@H](C)C(=O)N[C@@H](C)C(=O)N[C@@H](CCS(C)(=O)=O)C(=O)NCc1ccccc1 [MMI-003] |  | 1.66e+06 |  | 
27 | COc1ccc(C(=O)N[C@@H](CCSC)C(=O)N[C@@H](CC(C)C)[C@@H](O)C[C@@H](C)C(=O)N[C@@H](CC(C)C)C(=O)NC(C)C)cc1 [MMI-208] | 1950 | 1220 |  | Ki [3]: 407 nM
28 | CSCC[C@H](NC(=O)[C@@H](NC(=O)OC(C)(C)C)C(C)C)C(=O)N[C@@H](CC(C)C)[C@@H](O)C[C@H](C)NC(=O)[C@H](NC(=O)OCc1ccccc1)C(C)C [MMI-169] |  |  | 1.1 | 
29 | CCC[C@H](C[C@H](O)[C@H](CC(C)C)NC(=O)[C@H](CSC)NC(=O)OCc1cccnc1)C(=O)N[C@H](C(=O)NCc1ccccc1)C(C)C [MMI-031] | 864 | 539 |  | 
30 | CC(C)CNC(=O)[C@@H](NC(=O)[C@H](C)C[C@H](O)[C@H](CC(C)C)NC(=O)[C@H](CCS(C)(=O)=O)NC(=O)[C@H](CC(C)C)NC(=O)OC(C)(C)C)C(C)C [MMI-135] | 10.3 | 6.46 | 0.12 | 
31 | CC[C@H](C)[C@H](NC(=O)[C@H](C)C[C@H](O)[C@H](CC(C)C)NC(=O)C(CCSC)NC(=O)[C@H](CC(C)C)NC(=O)OC(C)(C)C)C(=O)NCc1ccccc1 (some centres unmarked) [MMI-099] | 290 | 182 |  | 
32 | CSCC[C@H](NC(=O)NCc1ccco1)C(=O)N[C@@H](CC(C)C)[C@@H](O)C[C@@H](C)C(=O)N[C@H](C(=O)NCc1ccccc1)C(C)C [MMI-115] | 378 | 236 | 1.04 | 
33 | Cc1c(O)cccc1C(=O)N[C@@H](CCS(C)(=O)=O)C(=O)N[C@@H](CC(C)C)[C@@H](O)C[C@@H](C)C(=O)N[C@@H](CC(C)C)C(=O)NCc1ccccc1 [MMI-123] |  |  | 0.61 | 
34 | CCC(C)[C@H](NC(=O)[C@H](C)C[C@H](O)[C@H](CC(C)C)NC(=O)[C@H](CCO)NC(=O)c1cnc2ccccc2c1)C(=O)N[C@H]1c2ccccc2C[C@H]1O (some centres unmarked) [MMI-050] |  | 91200 |  | 
35 | CSCC[C@H](NC(=O)[C@@H](NC(=O)OC(C)(C)C)C(C)C)C(=O)N[C@@H](CC(C)C)[C@@H](O)C[C@@H](C)NC(=O)[C@@H](NC(=O)OCc1ccccc1)C(C)C [MMI-163] |  |  | 0.57 | 
36 | CC(C)C[C@H](NC(=O)[C@H](CCS(C)(=O)=O)NC(=O)[C@@H](NC(=O)OC(C)(C)C)C(C)C)[C@@H](O)C[C@@H](C)C(=O)N[C@@H](C)C(=O)NCc1ccccc1 [MMI-009] | 89.9 | 56.2 |  | 
37 | CSC[C@H](NC(=O)OCc1ccccn1)C(=O)N[C@@H](CC(C)C)[C@@H](O)C[C@@H](C)C(=O)N[C@@H](CC(C)C)C(=O)NCc1ccccc1 [MMI-124] |  |  | 0.93 | 
38 | CSCC[C@H](NC(=O)c1cccc(C)c1C)C(=O)N[C@@H](CC(C)C)[C@@H](O)C[C@@H](C)C(=O)N[C@@H](CC(C)C)C(=O)NC(C)C [MMI-210] | 899 | 562 |  | 
39 | CSCC[C@H](NC(=O)OC(C)(C)C)C(=O)N[C@@H](CC(C)C)[C@@H](O)C[C@@H](C)C(=O)N[C@H](C(=O)NCc1ccccc1)C(C)C [MMI-015] | 9040 | 5650 |  | 
40 | CSCC[C@H](NC(=O)[C@@H](NC(=O)OC(C)(C)C)C(C)C)C(=O)N[C@@H](CC(C)C)[C@@H](O)C[C@]1(C)CCN([C@@H](CC(C)C)C(=O)NCC(C)C)C1=O [MMI-191] |  |  |  | Ki app [4]: N.I.; Ki [5]: N.I.
41 | CC(C)C[C@H](NC(=O)[C@H](CC(N)=O)NC(=O)[C@@H](NC(=O)OC(C)(C)C)C(C)C)[C@@H](O)C[C@@H](C)C(=O)N[C@H](C(=O)NCc1ccccc1)C(C)C [MMI-012] | 9.1 | 5.68 |  | 
42 | CSCC[C@H](NC(=O)[C@@H](NC(=O)OC(C)(C)C)C(C)C)C(=O)N[C@@H](CC(C)C)[C@@H](O)C[C@@H](C)C(=O)N[C@@H](CC(C)C)C(=O)NC1Cc2ccccc2C1 [MMI-066] | 21.2 | 13.2 |  | 
